Measurements published in US9096592B2, “Bicyclic aza heterocycles, and use thereof” (BAYER INTELLECTUAL PROPERTY GMBH, priority 2010, dated 2015).
Where a name gives a salt, the structure may show the parent alone.

Tested on: aorta rings
Assay: Vasorelaxant action in vitro (phenylephrine-contracted rabbit aorta rings, organ bath)
Conditions: Oryctolagus cuniculus; concentration needed to reduce the phenylephrine contraction of rabbit aorta rings by 50%
Protocol: B-1. Vasorelaxant Action In Vitro
Rabbits are stunned by a blow to the neck and exsanguinated. The aorta is removed, freed from adhering tissue and divided into rings of width 1.5 mm, which are placed individually under prestress into 5 ml organ baths with carbogen-sparged Krebs-Henseleit solution at 37° C. having the following composition (each mM): sodium chloride 119; potassium chloride: 4.8; calcium chloride dihydrate: 1; magnesium sulfate heptahydrate: 1.4; potassium dihydrogenphosphate: 1.2; sodium hydrogencarbonate: 25; glucose: 10. The contractile force is determined with Statham UC2 cells, amplified and digitalized using A/D transducers (DAS-1802 HC, Keithley Instruments Munich), and recorded in parallel on linear recorders. To obtain a contraction, phenylephrine is added to the bath cumulatively in increasing concentration. After several control cycles, the substance to be studied is added in increasing dosage each time in every further run, and the magnitude of the contraction is compared with the magnitude of the contraction attained in the last preceding run. This is used to calculate the concentration needed to reduce the magnitude of the control value by 50% (IC50 value). The standard administration volume is 5 μl; the DMSO content in the bath solution corresponds to 0.1%.

Row | Structure (SMILES) | IC50 [nM]
1 | CC(C)(O)Cn1c(=O)[nH]c2nc(-c3nn(Cc4ccccc4F)c4ncccc34)nc(N)c21 [Example 2, 6-Amino-2-[1-(2-fluorobenzyl)-1H-pyrazolo[3,4-b]pyridin-3-yl]-7-(2-hydroxy-2-methylpropyl)-7,9-dihydro-8H-purin-8-one] | 49
2 | Nc1nc(-c2nn(Cc3ccccc3F)c3ncccc23)nc2cccc(Cl)c12 [Example 7, 5-Chloro-2-[1-(2-fluorobenzyl)-1H-pyrazolo[3,4-b]pyridin-3-yl]quinazolin-4-amine] | 1090
3 | Nc1nc(-c2nn(Cc3ccccc3F)c3ncccc23)nc2sccc12 [Example 12, 2-[1-(2-Fluorobenzyl)-1H-pyrazolo[3,4-b]pyridin-3-yl]thieno[2,3-d]pyrimidin-4-amine] | 284
4 | Cc1nsc2nc(-c3nn(Cc4ccccc4F)c4ncccc34)nc(N)c12 [Example 13, 6-[1-(2-Fluorobenzyl)-1H-pyrazolo[3,4-b]pyridin-3-yl]-3-methyl[1,2]thiazolo[5,4-d]pyrimidin-4-amine] | 246
5 | Nc1nc(-c2nn(Cc3ccccc3F)c3ncccc23)nc2onc(C(F)(F)F)c12 [Example 15, 6-[1-(2-Fluorobenzyl)-1H-pyrazolo[3,4-b]pyridin-3-yl]-3-(trifluoromethyl)[1,2]oxazolo[5,4-d]pyrimidin-4-amine] | 730
6 | Nc1nc(-c2nn(Cc3ccccc3F)c3ncccc23)nc2[nH]nc(OCCO)c12 [Example 21, 2-({4-Amino-6-[1-(2-fluorobenzyl)-1H-pyrazolo[3,4-b]pyridin-3-yl]-1H-pyrazolo[3,4-d]pyrimidin-3-yl}oxy)ethanol] | 233
7 | CC1=Nc2c(N)nc(-c3nn(Cc4ccccc4F)c4ncccc34)nc2NCC1 [Example 23, 2-[1-(2-Fluorobenzyl)-1H-pyrazolo[3,4-b]pyridin-3-yl]-6-methyl-8,9-dihydro-7H-pyrimido[4,5-b][1,4]diazepin-4-amine] | 197
8 | Nc1nc(-c2nn(Cc3ccccc3F)c3ncccc23)nc2[nH]c(=S)[nH]c12 [Example 28, 6-Amino-2-[1-(2-fluorobenzyl)-1H-pyrazolo[3,4-b]pyridin-3-yl]-7,9-dihydro-8H-purine-8-thione] | 800
9 | CSc1nc2c(N)nc(-c3nn(Cc4ccccc4F)c4ncccc34)nc2[nH]1 [Example 29, 2-[1-(2-Fluorobenzyl)-1H-pyrazolo[3,4-b]pyridin-3-yl]-8-(methylsulfanyl)-7H-purin-6-amine] | 31
10 | Nc1nc(-c2nn(Cc3ccccc3F)c3ncccc23)nc2[nH]c(=O)n(CC(F)(F)F)c12 [Example 44, 6-Amino-2-[1-(2-fluorobenzyl)-1H-pyrazolo[3,4-b]pyridin-3-yl]-7-(2,2,2-trifluoroethyl)-7,9-dihydro-8H-purin-8-one] | 83
11 | O=c1[nH]c2nc(-c3nn(Cc4ccccc4F)c4ncccc34)ncc2n1CC(F)(F)F [Example 45, 2-[1-(2-Fluorobenzyl)-1H-pyrazolo[3,4-b]pyridin-3-yl]-7-(2,2,2-trifluoroethyl)-7,9-dihydro-8H-purin-8-one] | 41
12 | Nc1nc(-c2nn(Cc3ccccc3F)c3ncccc23)nc2[nH]c(=O)c(C(F)(F)F)nc12 [Example 50, 4-Amino-2-[1-(2-fluorobenzyl)-1H-pyrazolo[3,4-b]pyridin-3-yl]-6-(trifluoromethyl)pteridin-7(8H)-one] | 1390
13 | Nc1nc(-c2nn(Cc3ccccc3F)c3ncccc23)nc2nccnc12 [Example 52, 2-[1-(2-Fluorobenzyl)-1H-pyrazolo[3,4-b]pyridin-3-yl]pteridin-4-amine] | 126
14 | Nc1nc(-c2nn(Cc3ccccc3F)c3ncccc23)nc2[nH]nnc12 [Example 53, 5-[1-(2-Fluorobenzyl)-1H-pyrazolo[3,4-b]pyridin-3-yl]-3H-[1,2,3]triazolo[4,5-d]pyrimidin-7-amine] | 424
15 | Nc1nc(-c2nn(Cc3ccccc3F)c3ncccc23)nc2nsnc12 [Example 57, 5-[1-(2-Fluorobenzyl)-1H-pyrazolo[3,4-b]pyridin-3-yl][1,2,5]thiadiazolo[3,4-d]pyrimidin-7-amine] | 39
16 | Nc1nc(-c2nn(Cc3ccccc3F)c3ncccc23)nc2ncn(CC(F)(F)F)c12 [Example 60, 2-[1-(2-Fluorobenzyl)-1H-pyrazolo[3,4-b]pyridin-3-yl]-7-(2,2,2-trifluoroethyl)-7H-purin-6-amine] | 199
17 | Nc1nc(-c2nn(Cc3ccccc3F)c3ncccc23)nc2nc(C(F)(F)F)n(CC(F)(F)F)c12 [Example 61, 2-[1-(2-Fluorobenzyl)-1H-pyrazolo[3,4-b]pyridin-3-yl]-7-(2,2,2-trifluoroethyl)-8-(trifluoromethyl)-7H-purin-6-amine] | 759

Row | Structure (SMILES) | IC50 [nM]
18 | Nc1nc(-c2nn(Cc3ccccc3F)c3ncc(F)cc23)nc2[nH]c(=O)n(CC(F)(F)F)c12 [Example 62, 6-Amino-2-[5-fluoro-1-(2-fluorobenzyl)-1H-pyrazolo[3,4-b]pyridin-3-yl]-7-(2,2,2-trifluoroethyl)-7,9-dihydro-8H-purin-8-one] | 114
19 | COC(=O)N1CCNc2nc(-c3nn(Cc4ccccc4F)c4ncccc34)ccc21 [Example 63, Methyl 6-[1-(2-fluorobenzyl)-1H-pyrazolo[3,4-b]pyridin-3-yl]-3,4-dihydropyrido[2,3-b]pyrazine-1(2H)-carboxylate] | 139
20 | O=c1[nH]c2ccc(-c3nn(Cc4ccccc4F)c4ncccc34)nc2[nH]1 [Example 71, 5-[1-(2-Fluorobenzyl)-1H-pyrazolo[3,4-b]pyridin-3-yl]-1,3-dihydro-2H-imidazo[4,5-b]pyridin-2-one] | 86
21 | Fc1ccccc1Cn1nc(-c2ncc3ccccc3n2)c2cccnc21 [Example 74, 2-[1-(2-Fluorobenzyl)-1H-pyrazolo[3,4-b]pyridin-3-yl]quinazoline] | 713
22 | CCOC(=O)N1CCNc2nc(-c3nn(Cc4ccccc4F)c4ncccc34)nc(N)c21 [Example 76, Ethyl 4-amino-2-[1-(2-fluorobenzyl)-1H-pyrazolo[3,4-b]pyridin-3-yl]-7,8-dihydropteridine-5(6H)-carboxylate formate] | 23
23 | CC(C)c1nc2c(N)nc(-c3nn(Cc4ccccc4F)c4ncccc34)nc2[nH]c1=O [Example 83, 4-Amino-2-[1-(2-fluorobenzyl)-1H-pyrazolo[3,4-b]pyridin-3-yl]-6-isopropylpteridin-7(8H)-one] | 27
24 | Nc1nc(-c2nn(Cc3ccccc3F)c3ncccc23)nc2ccncc12 [Example 84, 2-[1-(2-Fluorobenzyl)-1H-pyrazolo[3,4-b]pyridin-3-yl]pyrido[4,3-d]pyrimidin-4-amine] | 155
25 | Nc1nc(-c2nn(Cc3ccccc3F)c3ncccc23)nc2cccnc12 [Example 85, 2-[1-(2-Fluorobenzyl)-1H-pyrazolo[3,4-b]pyridin-3-yl]pyrido[3,2-d]pyrimidin-4-amine] | 164
26 | Cn1c(=O)[nH]c2nc(-n3nc(Cc4ccccc4F)c4ncccc43)nc(N)c21 [Example 89, 6-Amino-2-[3-(2-fluorobenzyl)-1H-pyrazolo[4,3-b]pyridin-1-yl]-7-methyl-7,9-dihydro-8H-purin-8-one] | 146
27 | Nc1nc(-n2nc(Cc3ccccc3F)c3ncccc32)nc2[nH]c(=O)[nH]c12 [Example 90, 6-Amino-2-[3-(2-fluorobenzyl)-1H-pyrazolo[4,3-b]pyridin-1-yl]-7,9-dihydro-8H-purin-8-one] | 5980
28 | Nc1nc(-n2nc(Cc3ccccc3F)c3ncccc32)nc2[nH]c(=O)n(Cc3ccc(F)cc3)c12 [Example 91, 6-Amino-7-(4-fluorobenzyl)-2-[3-(2-fluorobenzyl)-1H-pyrazolo[4,3-b]pyridin-1-yl]-7,9-dihydro-8H-purin-8-one] | 475
29 | Nc1nc(-n2nc(Cc3ccccc3F)c3ncccc32)nc2[nH]c(=O)n(CCO)c12 [Example 92, 6-Amino-2-[3-(2-fluorobenzyl)-1H-pyrazolo[4,3-b]pyridin-1-yl]-7-(2-hydroxyethyl)-7,9-dihydro-8H-purin-8-one] | 535
30 | Cn1c(=O)[nH]c2nc(-c3nn(Cc4ccccc4F)c4ncc(F)cc34)ncc21 [Example 95, 2-[5-Fluoro-1-(2-fluorobenzyl)-1H-pyrazolo[3,4-b]pyridin-3-yl]-7-methyl-7,9-dihydro-8H-purin-8-one] | 44
31 | Fc1cnc2c(c1)c(-c1ncc3cc[nH]c3n1)nn2Cc1ccccc1F [Example 97, 5-Fluoro-1-(2-fluorobenzyl)-3-(7H-pyrrolo[2,3-d]pyrimidin-2-yl)-1H-pyrazolo[3,4-b]pyridine] | 464
32 | COC(=O)N1CC(=O)Nc2nc(-c3nn(Cc4ccccc4F)c4ncccc34)nc(N)c21 [Example 98, Methyl 4-amino-2-[1-(2-fluorobenzyl)-1H-pyrazolo[3,4-b]pyridin-3-yl]-7-oxo-7,8-dihydropteridine-5(6H)-carboxylate] | 71
33 | CNc1nc(-c2nn(Cc3ccccc3F)c3ncccc23)nc2[nH]c(=O)n(CC(F)F)c12 [Example 103, 7-(2,2-Difluoroethyl)-2-[1-(2-fluorobenzyl)-1H-pyrazolo[3,4-b]pyridin-3-yl]-6-(methylamino)-7,9-dihydro-8H-purin-8-one] | 658
34 | O=c1[nH]c2nc(-c3nn(Cc4ccccc4F)c4ncccc34)ncc2n1C1CCN(C2CC2)CC1 [Example 104, 7-(1-Cyclopropylpiperidin-4-yl)-2-[1-(2-fluorobenzyl)-1H-pyrazolo[3,4-b]pyridin-3-yl]-7,9-dihydro-8H-purin-8-one] | 40
